This is an account of results in patent US8802665B2, “Pyrrolidine derivatives” (Hoffman-La Roche Inc., priority 2012, dated 2014).

The structures appear in SMILES notation. Structures can show the parent of a compound that is named as a salt.

Sequence of human Cat S (P25774 115-331): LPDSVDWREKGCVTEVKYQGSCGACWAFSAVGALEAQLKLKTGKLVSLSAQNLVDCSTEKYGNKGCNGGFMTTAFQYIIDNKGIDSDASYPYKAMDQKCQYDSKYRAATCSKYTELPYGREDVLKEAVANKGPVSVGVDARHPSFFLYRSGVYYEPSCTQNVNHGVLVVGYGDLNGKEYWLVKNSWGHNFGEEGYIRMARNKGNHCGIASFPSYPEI

The test addresses human Cat S (Homo sapiens (Human), UniProt P25774). The test can be described thus: Cathepsin enzyme inhibition assay (fluorogenic peptide substrate cleavage). In kind it is biochemical. The note with it: human Cathepsin S 1 nM, substrate Z-Val-Val-Arg-AMC 20 μM, pH 6.5; read-out: Ic50 CatS: human.
Broadly, the IC50 is the midpoint of a concentration-inhibition curve. Turning to `N#CC1(NC(=O)[C@@H]2C[C@@H](S(=O)(=O)c3ccccc3Cl)CN2C(=O)C2CCN2C2CCOCC2)CC1` (stereo partly drawn) [Example 5, (2S,4R)-4-(2-Chlorophenylsulfonyl)-N-(1-cyanocyclopropyl)-1-(1-(tetrahydro-2H-pyran-4-yl)azetidine-2-carbonyl)pyrrolidine-2-carboxamide formate], the IC50 is 0.8 nM.

Take `CCOC(=O)N1CCC(N2CCC2C(=O)N2C[C@H](S(=O)(=O)c3ccc(C)cc3)C[C@H]2C(=O)NC2(C#N)CC2)CC1` (stereo partly drawn) [Example 20, Ethyl 4-(2-((2S,4R)-2-(1-cyanocyclopropylcarbamoyl)-4-tosylpyrrolidine-1-carbonyl)azetidin-1-yl)piperidine-1-carboxylate]: the IC50 was found to be 1.4 nM.

On to `N#CC1(NC(=O)[C@@H]2C[C@@H](S(=O)(=O)c3ccccc3Cl)CN2C(=O)C2(N3CCSCC3)CC2)CC1` [Example 27, (2S,4R)-4-(2-Chlorophenylsulfonyl)-N-(1-cyanocyclopropyl)-1-(1-thiomorpholinocyclopropanecarbonyl)pyrrolidine-2-carboxamide], for which the IC50 turned out to be 0.3 nM.
